Data published in patent publication US20240398828A1, “HETERO-ATOM CONTAINING COMPOUNDS AND USES THEREOF” (Kumquat Biosciences Inc., priority 2021, published 2024).

Legend:
PTPN2 (i.e., TC-PTP) = molecular target: T1, PTPN2 (i.e., TC-PTP) (Homo sapiens, UniProt P17706); assay: Phosphatase activity assay (DiFMUP substrate), PTPN2; format: biochemical; conditions: compounds binned ≤1 uM or >1 uM
T1 sequence (P17706 1-415): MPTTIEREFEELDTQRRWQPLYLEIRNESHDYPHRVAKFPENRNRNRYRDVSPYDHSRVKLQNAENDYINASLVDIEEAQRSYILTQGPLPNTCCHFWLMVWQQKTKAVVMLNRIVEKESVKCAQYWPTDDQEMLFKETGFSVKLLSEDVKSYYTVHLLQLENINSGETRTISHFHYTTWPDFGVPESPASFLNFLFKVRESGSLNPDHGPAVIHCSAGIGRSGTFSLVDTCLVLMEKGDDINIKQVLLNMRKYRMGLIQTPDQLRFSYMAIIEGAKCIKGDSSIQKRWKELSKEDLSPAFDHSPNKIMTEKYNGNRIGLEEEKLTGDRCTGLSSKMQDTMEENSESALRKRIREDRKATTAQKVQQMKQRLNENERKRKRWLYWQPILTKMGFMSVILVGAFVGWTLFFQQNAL
In short: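 Enzyme (e.g. PTPN2 0.025 ng/ul) mixed about 2 min with compound at 10 serial concentrations in 50 mM HEPES pH 7.5, 150 mM NaCl, 0.5 mM EDTA, 1 mM DTT, 0.001% Tween-20 at room temperature. DiFMUP added at each enzyme's Km (about 45 μM for PTPN2). DiFMU fluorescence (ex 360/em 450 nm) followed 15-30 min; IC50 from 4-parameter fit of rates.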

PTPN1 (i.e., PTP1B) = molecular target: T2, PTPN1 (i.e., PTP1B) (Homo sapiens, UniProt P18031); assay: Phosphatase activity assay (DiFMUP substrate), PTP1B; format: biochemical; conditions: compounds binned ≤1 uM or >1 uM
T2 sequence (P18031 1-435): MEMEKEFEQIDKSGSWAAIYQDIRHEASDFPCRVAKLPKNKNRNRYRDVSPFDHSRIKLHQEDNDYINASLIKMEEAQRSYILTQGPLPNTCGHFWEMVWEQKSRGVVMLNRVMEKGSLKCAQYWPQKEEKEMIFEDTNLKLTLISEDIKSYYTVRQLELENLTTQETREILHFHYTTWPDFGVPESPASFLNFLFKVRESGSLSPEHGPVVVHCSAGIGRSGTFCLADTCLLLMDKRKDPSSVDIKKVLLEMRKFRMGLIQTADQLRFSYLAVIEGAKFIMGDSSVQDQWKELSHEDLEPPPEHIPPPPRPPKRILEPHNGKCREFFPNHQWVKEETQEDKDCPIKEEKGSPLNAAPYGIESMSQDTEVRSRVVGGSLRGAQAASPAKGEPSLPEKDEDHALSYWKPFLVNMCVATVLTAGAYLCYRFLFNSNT
In short: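 First, serially diluted inhibitor is mixed about 2 minutes with enzyme in pH 7.5 HEPES/NaCl/EDTA/DTT/Tween-20 buffer. Next, DiFMUP is added at the enzyme's Km, approximately 45 μM for PTPN2. Finally, DiFMU appearance is read continuously at room temperature and rates are fitted for IC50.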

In the case of `O=C1CN(c2c(O)ccc(-c3ccc(NS(=O)(=O)C4CC4)cn3)c2F)S(=O)(=O)N1` [Compound 261, N-(6-(3-(1,1-dioxido-4-oxo-1,2,5-thiadiazolidin-2-yl)-2-fluoro-4-hydroxyphenyl)pyridin-3-yl)cyclopropanesulfonamide], the IC50 (PTPN2 (i.e., TC-PTP)) is reported as at most 1 µM and the IC50 (PTPN1 (i.e., PTP1B)) is reported as at most 1 µM.
With `O=C1CN(c2c(O)ccc(-c3ccc4[nH]ncc4c3)c2F)S(=O)(=O)N1` [Compound 114, 5-(2-fluoro-6-hydroxy-3-(1H-indazol-5-yl)phenyl)-1,2,5-thiadiazolidin-3-one 1,1-dioxide] the IC50 (PTPN2 (i.e., TC-PTP)) was at most 1 µM and the IC50 (PTPN1 (i.e., PTP1B)) was at most 1 µM.
`O=C1CN(c2c(O)ccc(-c3cnn(C4CCCCCC4)c3)c2F)S(=O)(=O)N1` [Compound 360, 5-(3-(1-cycloheptyl-1H-pyrazol-4-yl)-2-fluoro-6-hydroxyphenyl)-1,2,5-thiadiazolidin-3-one 1,1-dioxide] was tested, and the IC50 (PTPN2 (i.e., TC-PTP)) was at most 1 µM and the IC50 (PTPN1 (i.e., PTP1B)) was at most 1 µM.
`O=C1CN(c2c(O)ccc(-c3cn(-c4cc(F)ccc4F)cn3)c2F)S(=O)(=O)N1` [Compound 303, 5-(3-(1-(2,5-difluorophenyl)-1H-imidazol-4-yl)-2-fluoro-6-hydroxyphenyl)-1,2,5-thiadiazolidin-3-one 1,1-dioxide] was tested, and the IC50 (PTPN2 (i.e., TC-PTP)) was at most 1 µM and the IC50 (PTPN1 (i.e., PTP1B)) was at most 1 µM.
With `NC1CCN(c2cc(-c3ccc(O)c(N4CC(=O)NS4(=O)=O)c3F)[nH]n2)C1` (stereo not shown) [Compound 322, 5-(3-(3-(3-aminopyrrolidin-1-yl)-1H-pyrazol-5-yl)-2-fluoro-6-hydroxyphenyl)-1,2,5-thiadiazolidin-3-one 1,1-dioxide] the IC50 (PTPN2 (i.e., TC-PTP)) was at most 1 µM and the IC50 (PTPN1 (i.e., PTP1B)) was at most 1 µM.
With `O=C1CN(c2c(O)ccc(-c3cnn(CC4CC5CCC(C4)N5C(=O)C4CC4)c3)c2F)S(=O)(=O)N1` (stereo not shown) [Compound 295, 5-(3-(1-((8-(cyclopropanecarbonyl)-8-azabicyclo[3.2.1]octan-3-yl)methyl)-1H-pyrazol-4-yl)-2-fluoro-6-hydroxyphenyl)-1,2,5-thiadiazolidin-3-one 1,1-dioxide] the IC50 (PTPN2 (i.e., TC-PTP)) was at most 1 µM and the IC50 (PTPN1 (i.e., PTP1B)) was at most 1 µM.
In the case of `O=C1CC(c2c(O)ccc(-c3cn(CC4CCCCC4)cn3)c2F)S(=O)(=O)N1` (stereo not shown) [Compound 419, 5-(3-(1-(cyclohexylmethyl)-1H-imidazol-4-yl)-2-fluoro-6-hydroxyphenyl)isothiazolidin-3-one 1,1-dioxide], the IC50 (PTPN2 (i.e., TC-PTP)) is reported as over 1 µM and the IC50 (PTPN1 (i.e., PTP1B)) is reported as over 1 µM.
Compound `O=C1CN(c2c(O)ccc(-c3cnn(Cc4ccc(F)c(F)c4)c3)c2F)S(=O)(=O)N1` [Compound 211, 5-(3-(1-(3,4-difluorobenzyl)-1H-pyrazol-4-yl)-2-fluoro-6-hydroxyphenyl)-1,2,5-thiadiazolidin-3-one 1,1-dioxide] has an IC50 (PTPN2 (i.e., TC-PTP)) of at most 1 µM and an IC50 (PTPN1 (i.e., PTP1B)) of at most 1 µM.
`O=C1CN(c2c(O)ccc(-c3cc(O)cc4ccccc34)c2F)S(=O)(=O)N1` [Compound 218, 5-(2-fluoro-6-hydroxy-3-(3-hydroxynaphthalen-1-yl)phenyl)-1,2,5-thiadiazolidin-3-one 1,1-dioxide] gave an IC50 (PTPN2 (i.e., TC-PTP)) of over 1 µM and an IC50 (PTPN1 (i.e., PTP1B)) of over 1 µM.
Compound `O=C1CN(c2c(O)ccc(-c3cc(N4CC(c5ccccc5)C4)n[nH]3)c2F)S(=O)(=O)N1` [Compound 356, 5-(2-fluoro-6-hydroxy-3-(3-(3-phenylazetidin-1-yl)-1H-pyrazol-5-yl)phenyl)-1,2,5-thiadiazolidin-3-one 1,1-dioxide] has an IC50 (PTPN2 (i.e., TC-PTP)) of at most 1 µM and an IC50 (PTPN1 (i.e., PTP1B)) of at most 1 µM.
In the case of `Cn1ncc(-c2ccc(O)c(N3CC(=O)NS3(=O)=O)c2F)n1` [Compound 178, 5-(2-fluoro-6-hydroxy-3-(2-methyl-2H-1,2,3-triazol-4-yl)phenyl)-1,2,5-thiadiazolidin-3-one 1,1-dioxide], the IC50 (PTPN2 (i.e., TC-PTP)) is reported as at most 1 µM and the IC50 (PTPN1 (i.e., PTP1B)) is reported as at most 1 µM.
Work on `N#C[C@H]1CC[C@@H](n2cnc(-c3ccc(O)c(N4CC(=O)NS4(=O)=O)c3F)c2)CC1` [Compound 357, (1s,4s)-4-(4-(3-(1,1-dioxido-4-oxo-1,2,5-thiadiazolidin-2-yl)-2-fluoro-4-hydroxyphenyl)-1H-imidazol-1-yl)cyclohexane-1-carbonitrile] yielded an IC50 (PTPN2 (i.e., TC-PTP)) of at most 1 µM and an IC50 (PTPN1 (i.e., PTP1B)) of at most 1 µM.
Compound `CC(C)CCn1cc(-c2ccc(O)c(N3CC(=O)NS3(=O)=O)c2)cn1` [Compound 132, 5-(2-hydroxy-5-(1-isopentyl-1H-pyrazol-4-yl)phenyl)-1,2,5-thiadiazolidin-3-one 1,1-dioxide] has an IC50 (PTPN2 (i.e., TC-PTP)) of at most 1 µM and an IC50 (PTPN1 (i.e., PTP1B)) of at most 1 µM.
With `O=C1CN(c2c(O)ccc(-c3cc(N4CCC(O)C4)n[nH]3)c2F)S(=O)(=O)N1` (stereo not shown) [Compound 448, 5-(2-fluoro-6-hydroxy-3-(3-(3-hydroxypyrrolidin-1-yl)-1H-pyrazol-5-yl)phenyl)-1,2,5-thiadiazolidin-3-one 1,1-dioxide] the IC50 (PTPN2 (i.e., TC-PTP)) was at most 1 µM and the IC50 (PTPN1 (i.e., PTP1B)) was at most 1 µM.
`N#CC1CC1c1cc(-c2ccc(O)c(N3CC(=O)NS3(=O)=O)c2F)[nH]n1` (stereo not shown) [Compound 478, 2-(5-(3-(1,1-dioxido-4-oxo-1,2,5-thiadiazolidin-2-yl)-2-fluoro-4-hydroxyphenyl)-1H-pyrazol-3-yl)cyclopropane-1-carbonitrile] was tested, and the IC50 (PTPN2 (i.e., TC-PTP)) was at most 1 µM and the IC50 (PTPN1 (i.e., PTP1B)) was at most 1 µM.
`O=C1CN(c2c(O)ccc(-c3cc(CCCC(F)(F)F)n[nH]3)c2F)S(=O)(=O)N1` [Compound 255, 5-(2-fluoro-6-hydroxy-3-(3-(4,4,4-trifluorobutyl)-1H-pyrazol-5-yl)phenyl)-1,2,5-thiadiazolidin-3-one 1,1-dioxide] gave an IC50 (PTPN2 (i.e., TC-PTP)) of at most 1 µM and an IC50 (PTPN1 (i.e., PTP1B)) of at most 1 µM.
`CC(C)CCN1CCC=C(c2ccc(O)c(N3CC(=O)NS3(=O)=O)c2F)C1` [Compound 210, 5-(2-fluoro-6-hydroxy-3-(1-isopentyl-1,2,5,6-tetrahydropyridin-3-yl)phenyl)-1,2,5-thiadiazolidin-3-one 1,1-dioxide] was tested, and the IC50 (PTPN2 (i.e., TC-PTP)) was at most 1 µM and the IC50 (PTPN1 (i.e., PTP1B)) was at most 1 µM.
`O=C1CN(c2c(O)ccc(C3=CC(CO)NC3)c2F)S(=O)(=O)N1` (stereo not shown) [Compound 398, 5-(2-fluoro-6-hydroxy-3-(5-(hydroxymethyl)-2,5-dihydro-1H-pyrrol-3-yl)phenyl)-1,2,5-thiadiazolidin-3-one 1,1-dioxide] gave an IC50 (PTPN2 (i.e., TC-PTP)) of at most 1 µM and an IC50 (PTPN1 (i.e., PTP1B)) of at most 1 µM.
Work on `O=C1CN(c2c(O)ccc(-c3ccnc(N4CCCC4)c3)c2F)S(=O)(=O)N1` [Compound 162, 5-(2-fluoro-6-hydroxy-3-(2-(pyrrolidin-1-yl)pyridin-4-yl)phenyl)-1,2,5-thiadiazolidin-3-one 1,1-dioxide] yielded an IC50 (PTPN2 (i.e., TC-PTP)) of at most 1 µM and an IC50 (PTPN1 (i.e., PTP1B)) of at most 1 µM.
Work on `O=C1CN(c2c(O)ccc(-c3cn(CCC(F)F)nc3F)c2F)S(=O)(=O)N1` [Compound 530, 5-(3-(1-(3,3-difluoropropyl)-3-fluoro-1H-pyrazol-4-yl)-2-fluoro-6-hydroxyphenyl)-1,2,5-thiadiazolidin-3-one 1,1-dioxide] yielded an IC50 (PTPN2 (i.e., TC-PTP)) of at most 1 µM and an IC50 (PTPN1 (i.e., PTP1B)) of at most 1 µM.
Compound `Cc1cc(-c2ccc(O)c(N3CC(=O)NS3(=O)=O)c2F)n(C)n1` [Compound 284, 5-(3-(1,3-dimethyl-1H-pyrazol-5-yl)-2-fluoro-6-hydroxyphenyl)-1,2,5-thiadiazolidin-3-one 1,1-dioxide] has an IC50 (PTPN2 (i.e., TC-PTP)) of at most 1 µM and an IC50 (PTPN1 (i.e., PTP1B)) of at most 1 µM.
With `COC1CCN(c2cc(-c3ccc(O)c(N4CC(=O)NS4(=O)=O)c3F)[nH]n2)C1` (stereo not shown) [Compound 388, 5-(2-fluoro-6-hydroxy-3-(3-(3-methoxypyrrolidin-1-yl)-1H-pyrazol-5-yl)phenyl)-1,2,5-thiadiazolidin-3-one 1,1-dioxide] the IC50 (PTPN2 (i.e., TC-PTP)) was at most 1 µM and the IC50 (PTPN1 (i.e., PTP1B)) was at most 1 µM.
`CC(C)CCn1cc(-c2cc(F)c(O)c(N3CC(=O)NS3(=O)=O)c2)cn1` [Compound 153, 5-(3-fluoro-2-hydroxy-5-(1-isopentyl-1H-pyrazol-4-yl)phenyl)-1,2,5-thiadiazolidin-3-one 1,1-dioxide] showed an IC50 (PTPN2 (i.e., TC-PTP)) of over 1 µM and an IC50 (PTPN1 (i.e., PTP1B)) of at most 1 µM.
For `O=C1CN(c2c(O)ccc(-c3ccc(N4CCCC4)nc3)c2F)S(=O)(=O)N1` [Compound 177, 5-(2-fluoro-6-hydroxy-3-(6-(pyrrolidin-1-yl)pyridin-3-yl)phenyl)-1,2,5-thiadiazolidin-3-one 1,1-dioxide], the IC50 (PTPN2 (i.e., TC-PTP)) was at most 1 µM and the IC50 (PTPN1 (i.e., PTP1B)) was at most 1 µM.
In the case of `Cn1ncc2cc(-c3ccc(O)c(N4CC(=O)NS4(=O)=O)c3F)cnc21` [Compound 156, 5-(2-fluoro-6-hydroxy-3-(1-methyl-1H-pyrazolo[3,4-b]pyridin-5-yl)phenyl)-1,2,5-thiadiazolidin-3-one 1,1-dioxide], the IC50 (PTPN2 (i.e., TC-PTP)) is reported as at most 1 µM and the IC50 (PTPN1 (i.e., PTP1B)) is reported as at most 1 µM.
In the case of `O=C1CN(c2c(O)ccc(-c3coc(-c4ccccc4)n3)c2F)S(=O)(=O)N1` [Compound 173, 5-(2-fluoro-6-hydroxy-3-(2-phenyloxazol-4-yl)phenyl)-1,2,5-thiadiazolidin-3-one 1,1-dioxide], the IC50 (PTPN2 (i.e., TC-PTP)) is reported as at most 1 µM and the IC50 (PTPN1 (i.e., PTP1B)) is reported as at most 1 µM.
